The source of these data is patent US20250101025A1, “NOVEL PLK1 DEGRADATION INDUCING COMPOUND” (UPPTHERA, INC., priority 2021, published 2025).

For orientation: pIC50 means the IC50 on a negative log10 scale, so that one unit is a factor of ten. What is called IC50 is the midpoint of a concentration-inhibition curve.

The structures appear in SMILES notation. pIC50: −log10 of the molar value. Like-named read-outs stand apart in the source and are kept apart here.

Common to all, as to assay type: cell-based
One assay deals with T1, PLK1 (Homo sapiens, UniProt P53350).
T1 construct: endogenous in cells; host or cells: HeLa LgBit (Plk1-HiBit KI): HeLa stably expressing LgBit, with HiBit knocked in at the endogenous Plk1 locus by CRISPR/Cas9
T1 sequence (P53350 whole entry): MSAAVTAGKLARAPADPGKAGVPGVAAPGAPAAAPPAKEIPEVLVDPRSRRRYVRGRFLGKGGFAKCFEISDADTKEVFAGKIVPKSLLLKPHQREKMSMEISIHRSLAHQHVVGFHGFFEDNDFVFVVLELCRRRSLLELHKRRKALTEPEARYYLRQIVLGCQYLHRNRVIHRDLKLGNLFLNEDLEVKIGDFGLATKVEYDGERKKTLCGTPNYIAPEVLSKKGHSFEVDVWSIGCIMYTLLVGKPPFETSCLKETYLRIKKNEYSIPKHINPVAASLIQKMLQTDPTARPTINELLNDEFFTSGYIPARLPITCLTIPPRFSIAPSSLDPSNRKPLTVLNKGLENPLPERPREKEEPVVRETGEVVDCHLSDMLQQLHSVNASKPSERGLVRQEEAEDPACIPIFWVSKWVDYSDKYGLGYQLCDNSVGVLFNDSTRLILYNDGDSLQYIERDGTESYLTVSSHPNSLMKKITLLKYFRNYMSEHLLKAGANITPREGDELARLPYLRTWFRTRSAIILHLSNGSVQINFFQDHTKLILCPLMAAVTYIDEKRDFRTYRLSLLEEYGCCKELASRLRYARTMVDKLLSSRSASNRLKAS
Put plainly: Luciferase assay for PLK1 in HeLa LgBit (Plk1-HiBit KI) cell line. The following applies: compound 300 nM, luminescence after 9 hours. The gist of the method: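 HeLa cells stably expressing LgBit, with HiBit knocked in at the endogenous Plk1 C-terminus, synchronized by 2 mM thymidine block for 24 h, then released and cultured 18 h. Compound added at 300 nM with Endurazine substrate; luminescence tracked in real time and expressed as ratio to DMSO.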
(With HiBiT, luminescence reflects the tagged protein that the partner subunit can reach.)

Another assay relates to H526 cell line. The assay can be described thus: Cell viability assay for NCI-H526 cell line (EZ-Cytox). The following applies: Homo sapiens, NCI-H526, 120 h; H526 cells, 3-fold dilutions 3000 nM to 0.46 nM, 5 days. In a few lines:
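NCI-H526 cells were exposed to compound in CO2 incubator culture for 5 days. Viability was read by EZ-Cytox absorbance at 450 nm after 3 min shaking, giving IC50 values.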

The next assay concerns MRC-5 cell line. Put plainly: Cell viability assay for MRC-5 cell line (EZ-Cytox cytotoxicity experiment). The conditions noted are these: Homo sapiens, MRC5, 120 h, MRC-5 normal cell line, 5 days; for pIC50: highest concentration 10000 nM, N.D. = no cytotoxicity until 10 μM, read-out: Activity: IC50 value to MRC-5 cell line, N.D. cells. On the procedure: 4. Cell Viability Assay for MRC-5 Cell Line
(1) Culture of MRC-5 Cell Line
Passage of cultured cells was maintained within P15.
(2) Treatment of Compounds of the Present Invention
Then, it was cultured in 37° C.
(3) Cytotoxicity Experiment
CO2 incubator for 4 hours.

As to `COc1cc(C(=O)NC2CC3(CCN(CC4CCN(c5ccc(OC6CCC(=O)NC6=O)cc5)CC4)CC3)C2)ccc1Nc1ncc2c(n1)N(C(C)C)CC(F)(F)C(=O)N2C` (stereo not drawn) [Compound 36, 4-((7,7-difluoro-9-isopropyl-5-methyl-6-oxo-6,7,8,9-tetrahydro-5H-pyrimido[4,5-b][1,4]diazepin-2-yl)amino)-N-(7-((1-(4-((2,6-dioxopiperidin-3-yl)oxy)phenyl)piperidin-4-yl)methyl)-7-azaspiro[3.5]nonan-2-yl)-3-methoxybenzamide], at PLK1, the “Activity: ratio of the luminescence value of each Exemplary Compound treatment group to DMSO treatment group” value (shortened to “Activity: ratio”) was “+++ (+++: <0.3)”. In the assay with H526 cell line, this molecule gave a negative logarithm of the IC50 (pIC50) of over 7.52. Moreover, in the assay on MRC-5 cell line (3-fold dilutions 10000 nM to 1.52 nM, Exemplary Compounds, numeric values, read-out: Activity: IC50 value (nM) to MRC-5 cell line), the IC50 turned out to be 9800 nM.
For the molecule `COc1cc(C(=O)NN2CCC(CN3CCN(c4cccc(C(=O)NC5CCC(=O)NC5=O)c4)CC3)CC2)ccc1Nc1ncc2c(n1)N(C1CCCC1)CC(F)(F)C(=O)N2C` (stereo not drawn) [Compound 9, 4-((9-cyclopentyl-7,7-difluoro-5-methyl-6-oxo-6,7,8,9-tetrahydro-5H-pyrimido[4,5-b][1,4]diazepin-2-yl)amino)-N-(4-((4-(3-((2,6-dioxopiperidin-3-yl)carbamoyl)phenyl)piperazin-1-yl)methyl)piperidin-1-yl)-3-methoxybenzamide], the “Activity: ratio” value at PLK1 is recorded as “++ (++<0.6)”. In addition, the pIC50 in the assay on H526 cell line was over 7.30; in the assay on MRC-5 cell line it was under 5.00.
As to `COc1cc(C(=O)NC2CCN(C(=O)CCN3CCN(c4ccc(N(C)C5CCC(=O)NC5=O)cc4F)CC3)CC2)ccc1Nc1ncc2c(n1)N(C1CCCC1)CC(F)(F)C(=O)N2C` (stereo not drawn) [Compound 16, 4-((9-cyclopentyl-7,7-difluoro-5-methyl-6-oxo-6,7,8,9-tetrahydro-5H-pyrimido[4,5-b][1,4]diazepin-2-yl)amino)-N-(1-(3-(4-(4-((2,6-dioxopiperidin-3-yl)(methyl)amino)-2-fluorophenyl)piperazin-1-yl)propanoyl)piperidin-4-yl)-3-methoxybenzamide], the “Activity: ratio” value at PLK1 was “+++ (+++: <0.3)”. Besides, the pIC50 in the assay on H526 cell line is over 7.52; in the assay with MRC-5 cell line, under 5.00.
`COc1cc(C(=O)NC2CCN(CC3CN(c4ccc(NC5CCC(=O)NC5=O)cc4F)C3)CC2)ccc1Nc1ncc2c(n1)N(C(C)C)CC(F)(F)C(=O)N2C` (stereo not drawn) [Compound 20, 4-((7,7-difluoro-9-isopropyl-5-methyl-6-oxo-6,7,8,9-tetrahydro-5H-pyrimido[4,5-b][1,4]diazepin-2-yl)amino)-N-(1-((1-(4-((2,6-dioxopiperidin-3-yl)amino)-2-fluorophenyl)azetidin-3-yl)methyl)piperidin-4-yl)-3-methoxybenzamide]: the “Activity: ratio” value on PLK1 is reported as “++ (++<0.6)”. Also, the pIC50 in the assay on H526 cell line is over 7.30; in the assay with MRC-5 cell line it was under 5.00.
